The compounds below were run against T1, Lp-PLA2 (Homo sapiens, UniProt Q13093) (assay: Screen for Lp-PLA2 inhibition (turnover of artificial substrate (A), absorbance at 405 nm)). Conditions: 37° C., pH 7.4, 10 min pre-incubation, 20 μM substrate (A).
T1 construct: from tissue; host or cells: LDL from plasma (apheresis)
T1 sequence (Q13093 22-441): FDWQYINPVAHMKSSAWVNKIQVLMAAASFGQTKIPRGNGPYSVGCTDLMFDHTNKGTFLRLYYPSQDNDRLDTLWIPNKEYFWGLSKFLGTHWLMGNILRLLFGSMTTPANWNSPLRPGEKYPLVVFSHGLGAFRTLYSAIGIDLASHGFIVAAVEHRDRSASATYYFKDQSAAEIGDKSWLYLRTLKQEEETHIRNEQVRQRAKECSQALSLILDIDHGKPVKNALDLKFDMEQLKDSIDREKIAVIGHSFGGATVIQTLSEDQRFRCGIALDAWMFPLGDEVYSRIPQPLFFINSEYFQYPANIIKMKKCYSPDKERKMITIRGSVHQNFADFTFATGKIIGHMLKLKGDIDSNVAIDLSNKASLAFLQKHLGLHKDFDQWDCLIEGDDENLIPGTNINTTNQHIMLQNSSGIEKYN
Assay type: biochemical
Procedure: 1. Screen for Lp-PLA2 Inhibition.
Enzyme activity was determined by measuring the rate of turnover of the artificial substrate (A) at 37° C. in 50 mM HEPES (N-2-hydroxyethylpiperazine-N′-2-ethanesulphonic acid) buffer containing 150 mM NaCl, pH 7.4.
Assays were performed in 96 well titre plates.
Lp-PLA2 was pre-incubated at 37° C. with vehicle or test compound for 10 min in a total volume of 180 μl. The reaction was then initiated by the addition of 20 μl 10× substrate (A) to give a final substrate concentration of 20 μM. The reaction was followed at 405 nm for 20 minutes using a plate reader with automatic mixing. The rate of reaction was measured as the rate of change of absorbance.

SMILES	IC50 [nM]
CCCCCCCCCCCCCCCCCCOCC(COP(=O)([O-])OCC[N+](C)(C)C)NC(C)=O (centres unmarked) [Compound 2]	3500
CCCCCCCCCCCCCCCCCCOCC(COP(=O)([O-])OCC[S+](C)C)NC(C)=O (centres unmarked) [Compound 3]	1000
CCCCCCCCCCCCCCCCCCOCC(COP(=O)([O-])OCC[n+]1ccn(C)c1)NC(C)=O (centres unmarked) [Compound 8]	550

The remaining compounds from weak to strong by IC50, led by results:

IC50 [nM]	SMILES
2500	CCCCCCCCCCCCCCCCCCOCC(COP(=O)([O-])OCC[N+](C)(C)C)NC(=O)C(F)(F)F (centres unmarked) [Compound 9]
800	CCCCCCCCCCCCCCCCOCC(COP(=O)([O-])OCC[N+](C)(C)C)NC(C)=O (centres unmarked) [Compound 1]
